# Measured values reported in PubChem BioAssay (NCI).
# “And” between values parts separate entries of the source, which are not always exact repeats. Equal entries are not always repeated.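 A five-concentration, 48-hour dose response in 96-well plates underlies each endpoint, interpolated linearly between surrounding concentrations. Here, GI50 denotes the concentration required for 50% inhibition of growth. The concentration for full growth arrest is given as TGI.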
# How the values were obtained:
# Assay in all cases: NCI tumour cell line growth inhibition, 48 h
# BT-549 breast = tested on: BT-549 breast
# CAKI-1 renal = tested on: CAKI-1 renal
# HOP-92 NSCLC = tested on: HOP-92 NSCLC
# RPMI-8226 leukemia = tested on: RPMI-8226 leukemia
# MCF7 breast = tested on: MCF7 breast
# OVCAR-5 ovarian = tested on: OVCAR-5 ovarian
# A549 NSCLC = tested on: A549 NSCLC
# OVCAR-8 ovarian = tested on: OVCAR-8 ovarian
# SK-MEL-2 melanoma = tested on: SK-MEL-2 melanoma
# PC-3 prostate = tested on: PC-3 prostate
SMILES,GI50 (BT-549 breast),TGI (BT-549 breast),GI50 (CAKI-1 renal),TGI (CAKI-1 renal) [µM],GI50 (HOP-92 NSCLC),TGI (HOP-92 NSCLC) [µM],GI50 (RPMI-8226 leukemia),TGI (RPMI-8226 leukemia) [µM],GI50 (MCF7 breast),TGI (MCF7 breast) [µM],GI50 (OVCAR-5 ovarian),TGI (OVCAR-5 ovarian) [µM],GI50 (A549 NSCLC),TGI (A549 NSCLC) [µM],GI50 (OVCAR-8 ovarian),TGI (OVCAR-8 ovarian) [µM],GI50 (SK-MEL-2 melanoma),TGI (SK-MEL-2 melanoma) [µM],GI50 (PC-3 prostate),TGI (PC-3 prostate) [µM]
CN(C)c1ccc2cc3c(cc2c1)Oc1ccccc1N3.[Cl][Zn][Cl],14.4 µM,27.7 µM,2.91 µM,10.3,2.59 µM,8.33,3.98 µM,31,1.53 µM,3.91,1.96 µM,6.35,20.9 µM,51.5,5.64 µM,> 100,9.65 µM,31.3,3.54 µM,14.1
O=C(C(=O)c1cccnc1)c1cccnc1,> 100 µM,> 100 µM,> 100 µM,> 100,> 100 µM,> 100,> 100 µM,> 100,> 100 µM,> 100,> 100 µM,> 100,> 100 µM,> 100,> 100 µM,> 100,> 100 µM,> 100,> 100 µM,> 100
CC(C)c1ccc(C(c2c(O)c3ccccc3oc2=O)c2c(O)c3ccccc3oc2=O)cc1,,39.9 µM,,46.5,,21.2,,45.9,,86,,37.4,,45.7,,42.5,,30.8,,37.9
COc1ccc(-c2nsc3c2NC(=O)CC3c2cccc(F)c2)cc1 (centres undefined),7.77 µM,> 100 µM,4.69 µM,> 100,3.57 µM,40.6,4.18 µM,> 100,3.89 µM,> 100,7.86 µM,> 100,5.16 µM,> 100,7.54 µM,> 100,3.3 µM,9.19,4.93 µM,> 100
CCOP(=O)(OCC)C(NC(c1ccccc1)c1ccccc1)c1ccsc1 (centres undefined),27.5 µM,52.3 µM,16 µM,33.2,14.3 µM,30.8,7.76 µM,22,24.2 µM,> 100,16.9 µM,32.6,24.7 µM,76.9,23.5 µM,57,43.4 µM,> 100,10.9 µM,23.9
CN(CCCCCCCCNc1ccnc2ccccc12)Cc1ccc(-c2ccc(-c3ccc(C#N)cc3)s2)cc1,1.44 µM,3.2 µM,1.3 µM,2.65,0.337 µM,2.53,0.164 µM,0.571,0.183 µM,0.533,1.39 µM,2.73,1.01 µM,2.94,1.02 µM,4.5,1.85 µM,3.83,0.766 µM,2.3
COc1ccc(C2CC(c3ccc4ccccc4c3)=NN2c2nc(O)c(C3=c4cc(Cl)ccc4=NC3=O)s2)cc1 (centres undefined),0.0499 µM and < 0.005 µM,,0.036 µM and < 0.005 µM,,0.0168 µM and < 0.005 µM,,0.0641 µM,,0.0292 µM and < 0.005 µM,,0.0263 µM and < 0.005 µM,,0.0251 µM and < 0.005 µM,,0.0328 µM,,0.0263 µM and < 0.005 µM,,0.0283 µM and < 0.005 µM,
CC[C@H](C)[C@H](NC(=O)[C@H]1CCCCN1C)C(=O)N(C)[C@H](C[C@@H](OC(C)=O)c1nc(C(=O)NC23C4C5C2C2C3C4C52C(=O)OC)cs1)C(C)C (some centres undefined),0.00344 µM and 0.0025 µM,0.0801 µM and 0.0268 µM,0.016 µM,,5.44 µM,> 25,0.00197 µM and 0.0025 µM,7,0.000557 µM and 0.0025 µM,> 25,0.0702 µM and 0.0707 µM,> 25,0.00879 µM and 0.0025 µM,> 25,0.00204 µM and 0.0025 µM,> 25,0.00185 µM and 0.0025 µM,0.00452,0.00263 µM and 0.0025 µM,> 25
CCN(CC)CCOc1ccc(NC(=O)C(C(C)C)N2C(=O)/C(=C/c3ccc(Br)cc3)SC2=S)cc1 (centres undefined),14.4 µM,28.5 µM,4.38 µM,17.1,2.53 µM,13.5,2.35 µM,5.73,1.99 µM,4.34,2.89 µM,10.4,3.37 µM,12.5,3.24 µM,10.3,14.9 µM,30.9,3.17 µM,12.1
COc1ccc(Cl)cc1Nc1nc(C(F)(F)F)ccc1C(=O)N/N=C/c1ccccc1Cl,1.79 µM,8.82 µM,0.994 µM,8.19,2.34 µM,12.6,2.17 µM,6.81,1.04 µM,5.34,3.55 µM,54,3.53 µM,18.5,2.4 µM,> 31,3.45 µM,> 28.4,2.84 µM,> 100
O=C(CS(=O)c1nc2ccccc2nc1-c1ccccc1)Nc1ccc(Cl)cc1 (centres undefined),1.33 µM,53.1 µM,20.1 µM,57.5,12.3 µM,49.2,20.6 µM,58.8,38.7 µM,> 100,33.7 µM,> 100,32.3 µM,> 100,38.3 µM,> 100,27.4 µM,65.5,26.1 µM,> 100
